Measured values from patent publication US20050244819A1, “Assay system for screening protease inhibitors” (priority 2004, published 2005).

Key:
[1] = molecular target: T1, HIV protease precursor TF-PR^WT (Human immunodeficiency virus type 1 group M subtype B, UniProt P12497, L434F); experiment: cell-based; set-up: species or system HIV-1
T1 construct: Met-Gly (my reading of primer TF-F) + native transframe region (TFP 8 aa + p6pol 48 aa = 56 aa directly upstream of the protease in Gag-Pol); removed by autoprocessing (N, cleaved yes); expressed in transfected cells; host or cells: E. coli DH5α bearing plasmid pTF-PR^WT (pBAD, arabinose-induced)
Method: (§1) Stock solutions of the FDA-approved HIV protease inhibitors were prepared by solubilizing the drugs in 100% dimethyl sulfoxide (DMSO) at 100 mM. A single colony of the cells bearing the respective plasmid, namely pTF-PR^WT or pTF-PR^mutant, was inoculated into 2 ml of Luria-Bertani (LB) medium with 100 μg of ampicillin/ml and grown overnight at 37° C. The culture was diluted 100-fold with fresh Luria-Bertani medium containing 100 μg of ampicillin/ml and incubated at 37° C. for 2 h until the optical density at 630 nm (OD630) of the cells reached 0.6. The cells were then induced for protein expression with 0.2% arabinose and simultaneously treated with either HIV protease inhibitors dissolved in 2% DMSO at the indicated concentrations or 2% DMSO alone as the negative control. After incubation for an additional 3 h at 30° C., the cells were collected for Western blot analysis of proteins.

[2] = molecular target: T2, I84V HIV protease (Human immunodeficiency virus type 1 group M subtype B, UniProt P12497, I572V); experiment: E. coli-based assay system: β-galactosidase activity, cells co-expressing TF-PR^I84V and β-Gal^PR; type: cell-based, HIV-1
T2 construct: used to replace the wild-type HIV protease domain in the two-cistron system to construct the plasmid pTF-PR^I84V; Met-Gly (my reading of primer TF-F) + native transframe region (56 aa directly upstream of the protease in Gag-Pol) (N); Lys-Glu-Glu (my translation of primer PR-R: Shine-Dalgarno in frame before the stop codon) (C); expressed in transfected cells; host or cells: E. coli bearing plasmid pTF-PR^I84V
Method: (§2) Cell-Based β-galactosidase Activity Assay. Cell-based β-galactosidase activity assays were performed basically as described in Example 4. E. coli cells bearing each of the expression plasmids were grown as described, except that after incubation at 37° C. for 2 h to an OD630 of 0.6, the cells were transferred in triplicate sets to the wells of 96-well microplates. The cells were subjected to simultaneous induction for recombinant protein expression as well as drug treatment with HIV protease inhibitors at the indicated concentrations in 2% DMSO. For the screening of the compound library generated by the amide-forming reaction (see Example 5), DMF was used instead of DMSO. […] After the OD630 of the cells was determined by using an Ultramark microplate imaging system (Bio-Rad, Hercules, Calif.), ONPG was added at a final concentration of 200 μM to start the enzymatic reactions at 37° C. Changes in the OD415, indicating the production of ortho-nitrophenol, were continuously monitored with the Ultramark microplate imaging system. […] The β-galactosidase activity was determined as the number of micromoles of ortho-nitrophenol produced per minute at 37° C. […]

[3] = molecular target: T3, D30N HIV protease (Human immunodeficiency virus type 1 group M subtype B, UniProt P12497, D518N); experiment: cell-based; set-up: species or system HIV-1
T3 construct: used to replace the wild-type HIV protease domain in the two-cistron expression construct; Met-Gly (my reading of primer TF-F) + native transframe region (56 aa directly upstream of the protease in Gag-Pol) (N); Lys-Glu-Glu (my translation of primer PR-R: Shine-Dalgarno in frame before the stop codon) (C); expressed in transfected cells; host or cells: E. coli bearing plasmid pTF-PR^D30N
Method: as §2

[4] = molecular target: wild-type HIV protease (Human immunodeficiency virus type 1 group M subtype B, UniProt P12497); experiment: cell-based
Method: as §1
Cell-Based β-galactosidase Activity Assay. Cell-based β-galactosidase activity assays were performed basically as described in Example 4. E. coli cells bearing each of the expression plasmids were grown as described, except that after incubation at 37° C. for 2 h to an OD630 of 0.6, the cells were transferred in triplicate sets to the wells of 96-well microplates. The cells were subjected to simultaneous induction for recombinant protein expression as well as drug treatment with HIV protease inhibitors at the indicated concentrations in 2% DMSO. For the screening of the compound library generated by the amide-forming reaction (see Example 5), DMF was used instead of DMSO. After incubation for an additional 3 h at 30° C., the cells were made permeable for the entry of the β-galactosidase substrate, (ortho-nitrophenyl-β-D-galactopyranoside (ONPG)), by diluting the cells in assay buffer (10 mM NaP, pH 7.3, 10 mM NaCl, 1 mM MgSO4, 5 mM β-mercaptoethanol) that contained 50 μg of polymyxin B sulfate/ml and 2%Triton X-100 (Schupp et al., BioTechniques 19:18-20 (1995)). The cells were then incubated for 5 min at room temperature in 96-well microplates. After the OD630 of the cells was determined by using an Ultramark microplate imaging system (Bio-Rad, Hercules, Calif.), ONPG was added at a final concentration of 200 μM to start the enzymatic reactions at 37° C. Changes in the OD415, indicating the production of ortho-nitrophenol, were continuously monitored with the Ultramark microplate imaging system. The linear portion of the progression curve was used to determine the initial velocity with MATLAB (The MathWorks Inc., Natick, Mass.). The difference in OD415 (ΔA) was converted to the increase in product concentration (ΔC) by using the equation ΔA=ε(ΔC)(L), where L is the light path of 0.4 cm and the extinction coefficient (ε) of ortho-nitrophenol was 3,500 M^−1 cm^−1 under the assay conditions. The β-galactosidase activity was determined as the number of micromoles of ortho-nitrophenol produced per minute at 37° C. The β-galactosidase activity was then normalized against the amount of total cellular proteins, which was estimated by assuming that an OD630 unit corresponds to 1.4×10^9 cells and that every 10^9 cells yield approximately 150 μg of proteins (Pardee et al., J. Mol. Biol. 1:165-68 (1959)).
ββ-galactosidase activity assays were performed as described in Example 8. After drug treatment for 3 h, the cells were processed for detection of β-galactosidase activity of whole cells in 96-well microplates as described. Cells coexpressing TF-PR^WT and β-GalPR were treated with HIV protease inhibitors at the concentrations between 0 and 400 μM. β-galactosidase activities (micromoles per minute per milligram of total protein) in the treated E. coli cells were determined.
The β-galactosidase activity detected in E. coli coexpressing TF-PR^WT and β-Gal^PR in the absence of HIV protease inhibitors was referred to as 0% inhibition.

[5] = system: D30N HIV strain; conditions: concentration inhibiting 90% of mammalian cell death induced by HIV infection; Patick et al.; read-out: EC90 (μM) from standard antiviral assay with: D30N HIV strain; cited from earlier work
[6] = system: Wild-type HIV; conditions: concentration inhibiting 90% of mammalian cell death induced by HIV infection; Patick et al.; read-out: EC90 (μM) from standard antiviral assay with: Wild-type HIV; cited from earlier work

| Compound | IC50 [1] [nM] | IC50 [3] [nM] | IC50 [4] [nM] | EC90 [5] [µM] | EC90 [6] [µM] | also measured |
| --- | --- | --- | --- | --- | --- | --- |
| CC(C)CN(C[C@@H](O)[C@H](Cc1ccccc1)NC(=O)O[C@H]1CCOC1)S(=O)(=O)c1ccc(N)cc1 [APV, amprenavir] | 1600 to 8000 | 35900 ± 17700 | 53400 ± 17400 | – | – | IC50 [2]: 280000 ± 39000 nM |
| CC(C)(C)NC(=O)[C@@H]1CN(Cc2cccnc2)CCN1C[C@@H](O)C[C@@H](Cc1ccccc1)C(=O)N[C@H]1c2ccccc2C[C@H]1O [IDV, indinavir] | – | – | – | 0.01 | 0.06 | – |
| Cc1c(O)cccc1C(=O)N[C@@H](CSc1ccccc1)[C@H](O)CN1C[C@H]2CCCC[C@H]2C[C@H]1C(=O)NC(C)(C)C [NFV, nelfinavir] | 1600 to 8000 | > 400000 | 48400 ± 4800 | 0.18 | 0.03 | inhibition at 400 µM ([4]; read-out: % inhibition against the wild-type HIV protease): 75% |
| CC(C)c1nc(CN(C)C(=O)N[C@H](C(=O)N[C@@H](Cc2ccccc2)C[C@H](O)[C@H](Cc2ccccc2)NC(=O)OCc2cncs2)C(C)C)cs1 [RTV, ritonavir] | – | – | – | 0.01 | 0.05 | – |
| CC(C)(C)NC(=O)[C@@H]1C[C@@H]2CCCC[C@@H]2CN1C[C@@H](O)[C@H](Cc1ccccc1)NC(=O)[C@H](CC(N)=O)NC(=O)c1ccc2ccccc2n1 [SQV, saquinavir] | – | – | – | 0.01 | 0.03 | – |
| pepstatin A | – | – | – | – | – | inhibition of β-galactosidase activity (so in the source) ([4]; E. coli cells coexpressing TF-PR^WT and β-Gal^PR): did not inhibit; cell permeability ([4]; E. coli cells, inferred from lack of inhibition): low cell permeability; inhibitory effects in the assay procedures described herein ([4]; up to 5 mM): failed to exert any inhibitory effects |
